Consider one molecule from article PMC5549482, “Activation of Endocannabinoid Receptor 2 as a Mechanism of Propofol Pretreatment-Induced Cardioprotection against Ischemia-Reperfusion Injury in Rats” (Oxidative Medicine and Cellular Longevity, 2017).

The test concerns the target T1, fatty acid amide hydrolase (FAAH) (Homo sapiens, UniProt O00519).
T1 construct: human recombinant FAAH
T1 sequence (O00519 1-579): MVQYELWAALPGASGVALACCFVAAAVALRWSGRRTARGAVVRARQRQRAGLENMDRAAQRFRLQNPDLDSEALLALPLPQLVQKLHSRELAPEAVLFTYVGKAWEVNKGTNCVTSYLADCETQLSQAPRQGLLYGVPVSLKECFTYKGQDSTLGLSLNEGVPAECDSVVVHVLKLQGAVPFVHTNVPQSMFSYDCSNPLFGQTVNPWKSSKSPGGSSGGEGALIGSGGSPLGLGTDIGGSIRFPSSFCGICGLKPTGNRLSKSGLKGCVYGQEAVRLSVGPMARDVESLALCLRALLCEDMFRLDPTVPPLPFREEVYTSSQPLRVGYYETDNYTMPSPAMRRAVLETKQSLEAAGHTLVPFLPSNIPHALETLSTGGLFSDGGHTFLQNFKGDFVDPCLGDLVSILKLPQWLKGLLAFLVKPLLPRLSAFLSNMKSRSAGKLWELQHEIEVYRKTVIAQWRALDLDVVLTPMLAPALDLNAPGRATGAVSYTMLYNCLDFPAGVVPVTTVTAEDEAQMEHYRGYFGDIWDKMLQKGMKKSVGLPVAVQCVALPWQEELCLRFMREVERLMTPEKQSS
The test is described as follows: fluorescence FAAH inhibitor screening kit (Cayman), AMC arachidonoyl amide substrate, […] propofol. It counts as biochemical.

What is called IC50 is the concentration at which inhibition is half-maximal.

Structures are written as SMILES.

As for `CC(C)c1cccc(C(C)C)c1O` [propofol], the IC50 was about 28 µM.
